From patent US8785500B2, “Intranasal administration of ketamine to treat depression” (priority 2006, dated 2014)

What was measured:
[1] = tested on: subjects with DSM-IV treatment-resistant major depression; experiment: Randomized, placebo-controlled, double-blind crossover study of a single intravenous ketamine hydrochloride infusion; conditions: for effect size for the drug difference (d), HDRS: ketamine vs placebo
Description: Treatment-resistant major depression is a relatively common occurrence in clinical practice, with up to 50 to 60% of patients not achieving adequate response following antidepressant treatment. […] If the depression has not benefited from at least two adequate trials of medications from different classes in the current episode, clinically significant resistance is present. Several schemes to “stage” the degree of resistance have been proposed. The most widely accepted scheme uses the staging system of Thase and Rush. The stages of resistance are as follows:
Thus, the patient population to be treated by the present invention may be defined according to any one or more of the above schemes. After a 2-week drug-free period, exemplary subjects having treatment-resistant depression were given an intravenous infusion of either ketamine hydrochloride (0.5 mg/kg) or placebo on 2 test days, a week apart. Subjects were rated at baseline and at 40, 80 minutes, 110 minutes, 230 minutes and days 1, 2, 3 and 7 post-infusion. The outcome of the treatment was measured using changes in scores on the primary efficacy to measure the 21-item Hamilton Depression Rating Scale (HDRS).
Men and women, ages 18 to 65 years, who were inpatients with a diagnosis of major depressive disorder recurrent without psychotic features as diagnosed by means of the Structured Clinical Interview for Axis I DSM-IV Disorders—Patient Version 28 were eligible to participate.
All subjects were in good physical health as determined by medical history, physical exam, blood labs, electrocardiogram, chest x-ray, urinalysis and toxicology. Subjects were free of comorbid substance abuse or dependence for at least 3 months and judged clinically not to be a serious suicidal risk.
After a 2 week drug-free period, 18 subjects with DSM-IV major depression were randomized to an intravenous infusion of either ketamine hydrochloride (0.5 mg/kg) or placebo (saline solution) given over 40 minutes with a Baxter infusion pump on 2 test days, a week apart, in a double-blind, crossover study. Seventeen subjects received ketamine and 14 received placebo.
Subjects were rated 60 minutes prior to the infusion and at 40, 80, 110, and 230 minutes as well as 1, 2, 3, and 7 days after the infusion. The 21-item HDRS, Beck Depression Inventory Scale (BDI; [31]), Brief Psychiatric Rating Scale-positive symptoms (BPRS; [32]), Young Mania Rating Scale (YMRS; [33]), and the visual analogue scales score (VAS-depression; [34]). Raters, who trained together to establish reliability, performed patient ratings. […] Subjects were rated by a separate set of raters to help maintain blind to the infusion procedures and resulting side effects. The first set of raters administered the scales on the day of infusion (60 minutes prior to the infusion and 40, 80, 110 post-infusion). From 230 minutes onwards (days 1 through 7), a separate group of raters rated the subjects. Clinical response was defined as a 50% or greater decrease in the HDRS rating scale from baseline and remission as HDRS≦7 [35].
A full factorial, fixed effects linear mixed model with a compound symmetry covariance structure was used to examine the differences between ketamine and placebo over 9 time points from baseline to 7 days. Restricted maximum likelihood estimation was used to estimate missing values. Significant effects were examined with simple effects tests. The 21-item HDRS was the primary outcome measure. Scores from the BDI, BPRS, YMRS, and VAS were secondary outcome measures. Secondary analysis included examination of the individual items of the HDRS. Significance was evaluated at α<0.05, two-tailed.

[2] = tested on: subjects with major depression; conditions: cited from earlier work
[3] = tested on: men and women with intractable central neuropathic pain; conditions: cited from earlier work; for pain disability and subjective physical and mental function: 75 mg transdermally over 24 hours for 7 days
male Wistar rats = conditions: single dose; cited from earlier work
NMDA receptor = conditions: cited from earlier work
[4] = tested on: non-NMDA voltage-gated potassium currents; conditions: in vitro; cited from earlier work
[5] = tested on: women after abdominal gynecological surgery with lidocaine epidural blockade; conditions: cited from earlier work
[6] = tested on: chronic pain patients with breakthrough pain (BTP); conditions: 10-50 mg intranasal; cited from earlier work
[7] = in vivo; cited from earlier work
[8] = in vivo; cited from earlier work; remark: listed apart in the source
[9] = Intranasal versus intravenous ketamine plasma levels; conditions: human, other: intranasal
Description: The slow infusion of ketamine produces gradually increasing plasma levels during the infusion period. Dose-wise, the typical ketamine dose for surgical induction is between 1.0-2.0 mg/kg, with additional ketamine used to sustain anesthesia.

major depression [10] = conditions: reviews of antidepressant trials; cited from earlier work
[11] = clinical trials; cited from earlier work
major depression [12] = conditions: administered orally; cited from earlier work
[13] = both, human, in vivo, intravenous, 0.5 mg/kg
[14] = one day after infusion, intent to treat, n=17

Question: Which results are given for `CNC1(c2ccccc2Cl)CCCCC1=O` (racemic) [ketamine, 2-(2-chlorophenyl)-2-(methylamino)-cyclohexanone]?
Answer: onset of improvement in depression post-infusion ([1]; HDRS vs placebo): ≤ 2 h; effect size for the drug difference (d), HDRS ([1]; after 1 week, completers): 0.68; effect size for the drug difference (d), HDRS ([1]; after 24 hours, completers): 1.46; only time at which BPRS positive symptoms were worse on ketamine than placebo [1, 13]: 40 min; only time at which YMRS scores were worse (higher) on ketamine than placebo [1, 13]: 40 min; time beyond which euphoria or derealization/depersonalization did not persist [1, 13]: ≤ 110 min; earliest improvements, depressed mood and guilt (HDRS items) ([1]; completers): 40 min; individual HDRS symptoms with only a significant main effect for drug ([1]; completers): symptoms improved on ketamine for suicide, insomnia, general somatic symptoms, genital symptoms, and hypochondriasis; individual HDRS symptoms with significant time by drug interaction ([1]; completers): Depressed mood, guilt, work and interests, and psychic anxiety improved significantly; time at which motor retardation and gastrointestinal symptoms (HDRS items) were worse ([1]; completers): 40 min; time by which HDRS scores were lower on ketamine ([1]; first phase data only, significant through the seventh day): 80 min; baseline HDRS in the second phase of those who received ketamine first (carryover) ([1]; first-phase baseline 24.9±6.9, one week after infusion): 17.2±6.9; Peak change in BPRS positive symptoms on Ketamine, Group ([1]; group mean ±): +3.1 ± 3.4; % Change in HDRS (day 1) Ketamine, Group ([1]; group mean ±, 0.5 mg/kg i.v. over 40 min, baseline to day 1): −56.2 ± 20.4%; side effects occurring more commonly on ketamine than placebo ([1]; in vivo): perceptual disturbances, confusion, elevations in blood pressure, euphoria, dizziness, and increased libido; time after infusion within which side effects ceased ([1]; majority of side effects): ≤ 80 min; subjects meeting remission criteria (HDRS≦7) [1, 14]: 29%; subjects meeting response criteria (50% or greater decrease in HDRS) [1, 14]: 71%; subjects who maintained response at least 2 weeks ([1]; single infusion 0.5 mg/kg): 2 subjects; subjects who maintained response for at least 1 week ([1]; single infusion 0.5 mg/kg): 35%; time from which VAS depression (mood) improved on ketamine ([1]; through 7 days): 40 min; time from which self-rated BDI improved on ketamine ([1]; through 7 days, completers): 40 min; patients with 50% or greater decrease in HDRS during the 3-day follow-up period ([2]; Berman et al.): 4 of 8; onset of antidepressant effect post-infusion ([2]; previous study (Berman et al.)): 230 min; antidepressant effect ([2]; single intravenous dose, 7 subjects): rapid and short-lived antidepressant effect; pain disability and subjective physical and mental function [3]: significant improvement in pain disability, and subjective physical and mental function; time for which induction of behavioral despair is interfered with (male Wistar rats): up to 10 days; affinity for the NMDA receptor in contrast to memantine (NMDA receptor): higher affinity for the NMDA receptor; affinity for the NMDA receptor versus other sites (NMDA receptor): several fold higher than that for other sites; open channel blocking/unblocking kinetics in contrast to memantine (NMDA receptor): much slower open channel blocking/unblocking kinetics; effect on non-NMDA voltage-gated potassium currents [4]: only reduces non-NMDA voltage-gated potassium currents at much higher than reported in patients anesthetized with ketamine; side effects ([5]; transdermal 25 mg over 24 hrs): no side effects; time to rescue analgesic ([5]; transdermal patch 25 mg/24 hours, placebo 94±54): 230 ± 112 min; breakthrough pain versus placebo [6]: lower BTP; side effects [6]: very few side effects; half-life [7]: approximately 2 hours; intranasal plasma levels (pain) lower than in intravenous studies in depression [8]: 3-4 fold; i.v. dose roughly equivalent to the intranasal dose used for pain (50 mg) [9]: ~0.1 mg/kg

Question: With `CN[C@]1(c2ccccc2Cl)CCCCC1=O` [S(+)-ketamine] as the compound, how does the “pain intensity (Visual Analog Scale)” value ([3]; 50 mg, 75 mg or placebo) read?
Answer: no change among groups

Question: And the “pain disability and subjective physical and mental function” value [3]?
Answer: significant improvement in pain disability, and subjective physical and mental function

Question: And the “dissociation or psychotic symptoms” value ([3]; in vivo)?
Answer: no reports of dissociation or psychotic symptoms

Question: For `CC(NC(C)(C)C)C(=O)c1cccc(Cl)c1` (centres unmarked) [bupropion], which “response rates at week 8” value (major depression [10]) is on record?
Answer: 62%

Question: Which antidepressant properties [11] does the source give for `Nc1nnc(-c2cccc(Cl)c2Cl)c(N)n1` [lamotrigine] here?
Answer: found to have antidepressant properties

Question: For `CC12CC3CC(C)(C1)CC(N)(C3)C2` [memantine], which antidepressant effects (major depression [12]) is on record?
Answer: did not show the low- to moderate-affinity non-competitive NMDA antagonist memantine, administered orally, to have antidepressants effects

Question: For `NC1(c2ccccc2Cl)CCCCC1=O` (centres unmarked) [norketamine], which half-life [7] is on record?
Answer: ~5 h

Question: With `Nc1nc2ccc(OC(F)(F)F)cc2s1` [riluzole] as the compound, how does the antidepressant properties [11] read?
Answer: found to have antidepressant properties

Question: Which “response rates at week 8” value (major depression [10]) does the source give for `COc1ccc(C(CN(C)C)C2(O)CCCCC2)cc1` (centres unmarked) [venlafaxine] here?
Answer: 65%
